Laboratory results taken from the NIST ThermoML archive (doi:10.1016/j.fluid.2009.03.002).

Columns and labels:
[1] = relative permittivity at zero frequency (dimensionless); wn = mass fraction of the nth substance listed; settings: 101 kPa, Liquid, Parallel plate capacitor
[2] = wn = mass fraction of the nth substance listed; settings: 101 kPa, Liquid; for viscosity: Capillary tube (Ostwald / Ubbelohde) method; for mass density: Pycnometric method
[3] = cn = amount concentration of the nth substance listed, in mol/dm3; settings: 101 kPa, Liquid, Direct current cell with electrodes

OCCO [1,2-ethanediol] + CO
Settings	mass density, 293.15 K [kg/m3]	mass density, 298.15 K [kg/m3]	mass density, 303.15 K [kg/m3]	relative permittivity at zero frequency, 293.15 K	relative permittivity at zero frequency, 298.15 K	relative permittivity at zero frequency, 303.15 K	viscosity, 293.15 K [mPa·s]	viscosity, 298.15 K [mPa·s]	viscosity, 303.15 K [mPa·s]
[1], w1 = 0.25	–	–	–	35.2	34.7	33.7	–	–	–
[1], w1 = 0.5	–	–	–	37.3	36.7	35.6	–	–	–
[1], w1 = 0.75	–	–	–	39.3	38.7	37.4	–	–	–
[2], w1 = 0.25	864.7	860.9	858.6	–	–	–	1.127	1.03	0.9454
[2], w1 = 0.5	938.3	933.8	932.1	–	–	–	2.269	2.045	1.81
[2], w1 = 0.75	1023.4	1019.6	1017.3	–	–	–	5.8	4.904	4.232

CO [methanol] + OCCO
w2 = 0
Settings	mass density, 293.15 K [kg/m3]	mass density, 298.15 K [kg/m3]	mass density, 303.15 K [kg/m3]	relative permittivity at zero frequency, 293.15 K	relative permittivity at zero frequency, 298.15 K	relative permittivity at zero frequency, 303.15 K	viscosity, 293.15 K [mPa·s]	viscosity, 298.15 K [mPa·s]	viscosity, 303.15 K [mPa·s]
[1]	–	–	–	33.1	32.7	31.9	–	–	–
[2]	791	785.9	781.4	–	–	–	0.5814	0.5436	0.5112

CC(=O)[O-].[Na+] [sodium ethanoate] + CO
molar conductivity [S·m2/mol], [3]
Settings	293.15 K	298.15 K	303.15 K
c1 = 0.0007037	0.007613	0.00835	0.00893
c1 = 0.00101	0.007497	0.00824	0.00857
c1 = 0.00129	–	0.008107	–
c1 = 0.001548	0.007306	–	0.00804
c1 = 0.001786	0.007275	0.007949	0.00786
c1 = 0.002007	–	0.007893	0.0078
c1 = 0.002402	0.007159	0.007788	0.00754
c1 = 0.00258	0.007131	0.007732	0.0074
c1 = 0.003188	0.006994	0.007579	0.00714
c1 = 0.003441	0.006947	0.007529	0.00696
c1 = 0.003667	0.006913	0.007475	0.00692
c1 = 0.004222	0.006825	0.007371	0.0068
c1 = 0.004764	0.006759	0.007263	–
c1 = 0.004874	–	–	0.00643
c1 = 0.004976	0.006732	0.007194	–
c1 = 0.005072	–	–	0.00634
c1 = 0.005529	–	0.007125	–
c1 = 0.005591	0.006636	–	–
c1 = 0.005649	–	–	0.0062
c1 = 0.005756	0.006636	–	–
c1 = 0.005898	–	0.007044	–
c1 = 0.005982	–	–	0.00612
c1 = 0.006002	–	0.00701	–
c1 = 0.006253	0.006557	–	–
c1 = 0.006281	–	–	0.00612
c1 = 0.006493	0.00653	–	–

[I-].[Na+] [sodium iodide] + CO
molar conductivity [S·m2/mol], [3]
Settings	293.15 K	298.15 K	303.15 K
c1 = 0.0007005	0.008344	0.008814	0.0098
c1 = 0.001005	0.008236	0.008686	0.00954
c1 = 0.001541	0.00804	0.008464	0.009246
c1 = 0.001778	0.007969	0.008407	0.009148
c1 = 0.001998	–	0.008329	–
c1 = 0.002202	–	–	0.009014
c1 = 0.002391	0.00784	0.00825	0.00896
c1 = 0.002569	0.007786	0.008171	0.008907
c1 = 0.003036	0.007688	–	–
c1 = 0.003173	–	0.008019	0.00852
c1 = 0.003425	–	0.007956	0.00846
c1 = 0.003541	0.0076	–	–
c1 = 0.00365	–	0.007907	0.0084
c1 = 0.003754	0.007556	–	–
c1 = 0.004122	0.0075	–	–
c1 = 0.004203	–	0.007791	0.00825
c1 = 0.004684	0.007431	–	–
c1 = 0.004742	–	0.007697	–
c1 = 0.004852	–	–	0.00804
c1 = 0.004954	–	0.007663	–
c1 = 0.005049	–	–	0.008
c1 = 0.005094	0.007356	–	–
c1 = 0.005504	–	0.007571	–
c1 = 0.005623	–	–	0.00782
c1 = 0.005651	0.007288	–	–
c1 = 0.006031	–	0.007494	–
c1 = 0.00618	0.007194	–	–
c1 = 0.006252	–	–	0.0076
c1 = 0.006529	0.00715	–	–

N#C[S-].[Na+] [sodium thiocyanate] + CO
molar conductivity [S·m2/mol], [3]
Settings	293.15 K	298.15 K	303.15 K
c1 = 0.0006986	0.00956	0.01035	0.01085
c1 = 0.001002	0.009407	0.010245	–
c1 = 0.001281	–	–	0.0106
c1 = 0.001537	0.009271	0.0101	0.010507
c1 = 0.001773	0.009192	0.010014	0.01045
c1 = 0.002195	–	0.009936	0.010314
c1 = 0.002385	0.008993	0.009871	0.010271
c1 = 0.002561	0.00895	0.009821	0.010214
c1 = 0.003164	0.008836	0.009707	0.01008
c1 = 0.003415	0.008784	0.009675	0.010014
c1 = 0.00364	–	0.009616	0.009979
c1 = 0.003842	0.00872	–	–
c1 = 0.004191	0.008664	0.009507	0.009864
c1 = 0.004343	0.00868	–	–
c1 = 0.004729	–	0.009414	–
c1 = 0.004838	0.008578	–	0.009735
c1 = 0.005035	0.008541	–	0.009713
c1 = 0.005489	–	0.009293	–
c1 = 0.005607	–	–	0.0096
c1 = 0.005662	0.008477	–	–
c1 = 0.005855	–	0.00925	–
c1 = 0.006014	–	0.009229	–
c1 = 0.006261	–	–	0.009493
c1 = 0.006336	0.008396	–	–
